From patent publication US8034928B2, “Fluorescence assays with improved sensitivity” (Wisconsin Alumni Research Foundation, priority 2003, dated 2011)

What was measured:
[1] = test system: HeLa cells; test: Fluorescence microscopy of HeLa cells incubated with pro-fluorophore in DMEM; type: cell-based; settings: 10 μM, 2 h, 37° C., unwashed cells
Protocol: FIGS. 3B and C show unwashed HeLa cells incubated for 2 h with fluorescein diacetate (panel B; 10 μM) or 3 (panel C; 10 μM) at 37° C. in DMEM (5% CO2, 100% humidity). In FIG. 3C, the grey/white areas show the intensity of the fluorescence with the highest fluorescence shown as the lightest shade.
Fluorescence microscopy was used to determine the fate of fluorescein diacetate and pro-fluorophore 3 in DMEM containing HeLa cells.

[2] = Stability: generation of fluorescence in PBS, DMEM or water without trigger; type: physicochemical; settings: DMEM and PBS, 5 μM, no cells
Protocol: The biological utility of pro-fluorophore 3 was then studied. To be useful, a latent fluorophore must remain non-fluorescent or have a small fluorescence in a biological environment. Accordingly, the accumulation of fluorescence in Dulbecco's modified Eagle's medium (DMEM) and phosphate-buffered saline (PBS) containing either fluorescein diacetate (which is a widely used pro-fluorophore) or 3 were studied.
A solution of pro-fluorophore 3 (5 μM) in 2 mL PBS was treated with PLE (0.5 μg), and the mixture was kept at room temperature for 4 h. The fluorescence excitation-emission spectra of the solution were recorded. The procedure was repeated for a solution of pro-fluorophore 3 treated in an identical manner, except for the addition of PLE.

CC(=O)Oc1ccc2c(c1)Oc1cc(OC(C)=O)ccc1C21OC(=O)c2ccccc21 [fluorescein diacetate]
fluorescence in HeLa cells [1]: much greater in the medium than in HeLa cells
accumulation of fluorescence in medium (stability) [2]: became fluorescent in minutes
